Assays:
Format in all cases: physicochemical
[1] = Hygroscopicity of the active pharmaceutical ingredient; conditions: active pharmaceutical ingredient (API)
[2] = XRPD of the mixed powder in the study on the mixing process (crystal form stability); conditions: mixed powder of Example 1, mixing process
[3] = Solubility / biopharmaceutical classification

hygroscopicity [1]: slightly hygroscopic
crystal form of zanubrutinib in the process (XRPD) [2]: remained unchanged
class of the biopharmaceutical classification system [3]: class II
solubility [3]: pH-dependent
SMILES: C=CC(=O)N1CCC([C@@H]2CCNc3c(C(N)=O)c(-c4ccc(Oc5ccccc5)cc4)nn32)CC1 [zanubrutinib, (S)-7-[4-(1-acryloylpiperidine)]-2-(4-phenoxyphenyl)-4,5,6,7-tetrahydropyrazolo[1,5-a]pyrimidine-3-carboxamide]

From US20220241285A1, “ORAL CAPSULE AND PREPARATION METHOD THEREFOR” (BEIGENE SWITZERLAND GMBH, priority 2019, published 2022)
